# Like-named read-outs stand apart in the source and are kept apart here. Residues, ends and D or L forms follow the SMILES beside them. *: point of attachment. Cbz = O=C(OCc1ccccc1)*; CH2F = FC*
# What was measured:
# poliovirus 3C protease = poliovirus 3C protease (Poliovirus type 1, UniProt P03300); assay: biochemical; format: biochemical
# EV-D68 3C protease = EV-D68 3C protease (Human enterovirus D68, UniProt Q68T42); format: biochemical
# EV-D68 2A protease [1] = biological target: T1, EV-D68 2A protease (Human enterovirus D68, UniProt A0A097BW12); assay: biochemical; format: biochemical
# T1 sequence (A0A097BW12 862-1008): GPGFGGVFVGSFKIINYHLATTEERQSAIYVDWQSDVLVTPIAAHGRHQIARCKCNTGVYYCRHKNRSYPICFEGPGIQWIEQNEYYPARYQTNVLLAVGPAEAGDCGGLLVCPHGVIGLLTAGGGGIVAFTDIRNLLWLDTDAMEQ
# EV-D68 2A protease [2] = biological target: T1, EV-D68 2A protease; assay: EV-D68 VP1·2A self-processing (intra-molecular cleavage) in translation extracts; format: biochemical
# EV-D68 2A N84T mutant = biological target: T2, EV-D68 2A N84T mutant (Human enterovirus D68, UniProt Q68T42, N945T); assay: EV-D68 VP1·2A N84T (telaprevir resistant mutant) self-processing, pulse chase in translation extracts; format: biochemical
# T2 sequence (Q68T42 553-1008 N945T): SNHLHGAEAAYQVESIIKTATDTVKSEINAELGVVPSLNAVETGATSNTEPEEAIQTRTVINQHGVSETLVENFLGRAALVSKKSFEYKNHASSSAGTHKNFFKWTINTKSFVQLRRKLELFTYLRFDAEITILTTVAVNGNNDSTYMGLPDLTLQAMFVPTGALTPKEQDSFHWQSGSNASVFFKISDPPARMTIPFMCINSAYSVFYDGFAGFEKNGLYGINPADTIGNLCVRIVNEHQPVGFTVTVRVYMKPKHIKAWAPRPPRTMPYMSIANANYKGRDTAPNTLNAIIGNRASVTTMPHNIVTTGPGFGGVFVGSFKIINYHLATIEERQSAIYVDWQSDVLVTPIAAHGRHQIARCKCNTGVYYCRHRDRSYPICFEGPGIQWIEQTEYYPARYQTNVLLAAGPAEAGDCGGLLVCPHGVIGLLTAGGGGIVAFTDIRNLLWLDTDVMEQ
# poliovirus 2A protease [3] = biological target: T3, poliovirus 2A protease (Poliovirus type 1, UniProt P03300); conditions: read-out: IC50, eIF4G (inter-molecular) cleavage by poliovirus 2A
# Target sequence in this assay (P03300 882-1030 limits assumed): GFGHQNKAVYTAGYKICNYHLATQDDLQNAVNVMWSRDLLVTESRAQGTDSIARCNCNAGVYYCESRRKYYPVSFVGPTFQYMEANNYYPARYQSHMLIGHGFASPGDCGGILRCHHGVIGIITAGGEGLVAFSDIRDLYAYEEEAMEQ
# poliovirus 2A protease [4] = biological target: T3, poliovirus 2A protease
# Target sequence in this assay (P03300 580-1030 limits assumed): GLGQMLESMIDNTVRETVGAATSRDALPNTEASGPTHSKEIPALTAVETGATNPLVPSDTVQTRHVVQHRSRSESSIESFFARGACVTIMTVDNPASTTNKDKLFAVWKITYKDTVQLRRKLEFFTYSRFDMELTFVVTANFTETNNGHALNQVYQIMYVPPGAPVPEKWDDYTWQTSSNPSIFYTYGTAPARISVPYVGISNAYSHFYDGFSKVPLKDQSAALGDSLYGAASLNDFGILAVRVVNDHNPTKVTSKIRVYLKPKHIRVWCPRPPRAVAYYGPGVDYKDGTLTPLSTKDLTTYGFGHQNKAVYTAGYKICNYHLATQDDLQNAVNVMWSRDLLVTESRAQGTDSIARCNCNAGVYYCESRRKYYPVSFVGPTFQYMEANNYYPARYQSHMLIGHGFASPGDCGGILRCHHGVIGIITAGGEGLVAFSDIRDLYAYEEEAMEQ
# rhinovirus protease = conditions: cited from earlier work
# poliovirus 3C protease, sequence (P03300 1457-1748 limits assumed): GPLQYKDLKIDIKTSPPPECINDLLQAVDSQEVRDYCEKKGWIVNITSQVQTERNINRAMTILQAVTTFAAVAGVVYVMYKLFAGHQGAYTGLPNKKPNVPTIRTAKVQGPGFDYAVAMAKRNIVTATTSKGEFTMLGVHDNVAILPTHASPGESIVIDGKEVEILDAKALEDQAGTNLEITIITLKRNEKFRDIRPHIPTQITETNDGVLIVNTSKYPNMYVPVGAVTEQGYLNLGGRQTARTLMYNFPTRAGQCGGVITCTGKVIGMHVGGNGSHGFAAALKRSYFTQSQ
# EV-D68 3C protease, sequence (Q68T42 1438-1731 limits assumed): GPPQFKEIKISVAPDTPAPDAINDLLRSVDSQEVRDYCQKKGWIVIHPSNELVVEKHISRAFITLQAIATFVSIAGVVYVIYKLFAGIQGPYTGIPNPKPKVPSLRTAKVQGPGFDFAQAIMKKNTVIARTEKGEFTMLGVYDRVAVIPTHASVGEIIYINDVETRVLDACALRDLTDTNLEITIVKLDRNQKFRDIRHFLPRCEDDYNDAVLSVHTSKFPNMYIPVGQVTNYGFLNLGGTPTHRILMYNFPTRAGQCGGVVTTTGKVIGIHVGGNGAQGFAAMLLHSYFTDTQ
smiles,measurement,setting,value
CCOC(=O)/C=C/[C@H](C[C@@H]1CCNC1=O)NC(=O)[C@@H](CC(=O)[C@@H](NC(=O)c1cc(C)on1)C(C)C)Cc1ccc(F)cc1 [Rupintrivir],"inhibition of poliovirus 3ABC processing, concentration curve",poliovirus 3C protease,near-complete inhibition
same,"inhibition of self-processing, poliovirus inter-molecular 3ABC processing, pulse chase",poliovirus 3C protease,~100%
same,IC50,"poliovirus 3C protease; IC50, Poliovirus 3ABC (inter-molecular) cleavage",0.76 µM
same,IC50,"poliovirus 3C protease; IC50, inter-molecular cleavage of poliovirus 3ABC",~0.76 µM
same,"inhibition of EV-D68 3ABC processing, concentration curve",EV-D68 3C protease,near-complete inhibition
same,"inhibition of self-processing, EV-D68 intra-molecular 3ABC processing, pulse chase",EV-D68 3C protease,~100%
CCC[C@H](NC(=O)[C@@H]1[C@H]2CCC[C@H]2CN1C(=O)[C@@H](NC(=O)[C@@H](NC(=O)c1cnccn1)C1CCCCC1)C(C)(C)C)C(=O)C(=O)NC1CC1 [Telaprevir],inhibition of inter-molecular processing of eIF4G,EV-D68 2A protease [1],fully inhibited
same,IC50,"EV-D68 2A protease [1]; IC50, eIF4G (inter-molecular) cleavage by EV-D68 2A",0.19 µM
same,IC50,"EV-D68 2A protease [1]; IC50, inter-molecular cleavage of eIF4G by EV-D68 2A",~0.2 µM
same,"rate of VP1·2A self-processing, pulse chase, WT construct",EV-D68 2A protease [2]; 1 µM telaprevir,significantly decreased
same,inhibition of intra-molecular processing of VP1·2A,"EV-D68 2A protease [2]; 1-µM telaprevir, maximum concentration testable",20%
same,fold higher IC50 for intra-molecular VP1·2A cleavage than for inter-molecular eIF4G cleavage,EV-D68 2A protease [2]; EV-D68 2A,more than 20 fold
same,IC50,"EV-D68 2A protease [2]; approximate, translation extracts, drug added at initiation of translation",3.96 µM
same,"N84T mutant self-processing, pulse chase in the presence of telaprevir",EV-D68 2A N84T mutant,not inhibited
CSCCC(NC(=O)C(C)NC(=O)C(NC(=O)OCc1ccccc1)C(C)C)C(=O)CF (stereo not drawn) [zVAM.fmk] (Cbz-Val-Ala-Met-CH2F; configuration not given here),IC50,poliovirus 2A protease [3],18.9 µM
same,"inhibition of VP1·2A cis cleavage, pulse chase",poliovirus 2A protease [4],significant inhibition
same,IC50,"poliovirus 2A protease [4]; read-out: IC50, Poliovirus VP1·2A (intra-molecular) cleavage",1570 µM
same,IC50,"poliovirus 2A protease [4]; read-out: IC50, intra-molecular poliovirus VP1·2A cleavage",~1600 µM
same,concentration of optimal effects on rhinovirus VP1·2A precursor processing and eIF4G cleavage,rhinovirus protease,200 µM
